From article PMC10721329, “Quisinostat is a brain-penetrant radiosensitizer in glioblastoma” (JCI Insight, 2023)
“And” between values parts separate entries of the source, which are not always exact repeats. Equal values may be shown once.

What was measured:
[1] = Stability in mouse plasma with esterase inhibitors (BNPP, PMSF, DTNB); format: in vitro ADME; conditions: 37 C, QST conc 500nM
Experimental: Hydroxamic acid–based compounds have been reported to display poor stability and high plasma clearance due to the presence of arylesterases and carboxylesterases in rodent blood ([34]). Therefore, we measured the stability of QST in mouse plasma and brain to determine whether drug degradation occurred during our sample preparations and equilibrium dialyses for the determination of unbound drug level (performed at 37°C). […] QST degradation was also observed in mouse brain homogenate (Figure 6B). However, perfusion of mice before brain collection prevented rapid drug degradation in the brain matrix. […] Degradation of QST can also be constrained if plasma and brain samples are processed at 4°C (Supplemental Figure 4A). All subsequent sample preparations were therefore performed on ice-cold baths to avoid degradation of QST in our PK analyses. […] The observed stability is probably due to the absence of esterases in human matrices, which are responsible for degradation of QST ([34]). Because we employed QST in several in vitro studies (Figures 1–4), the stability of the molecule was also tested in the cell media used to culture GSCs (neurobasal medium; see Methods).
Stability Study in Mouse Plasma, Mouse Brain, Human Plasma, Human Brain, and Neural […]
The stability of QST was determined in BALB/c mouse plasma, male nude athymic perfused and nonperfused mouse brain homogenate (1:9 w/v of PBS; pH 7.4), human brain (obtained from VRL Eurofins) homogenate (1:4 w/v of PBS; pH 7.4), pooled human plasma (Innovative Research), and neurobasal media. QST stock solutions (1 mM) were prepared in acetonitrile, subsequently diluted in a 40% methanol mixture, and added t o the matrices to make final concentrations of 100 nM or 10 nM. Then 50 or 30 µL of either plasma or brain homogenate containing QST were aliquoted into 1.5-mL microcentrifuge tubes (Eppendorf) and were incubated at either 4 °C or 37 °C for 0, 2, 4, 6, 12, or 24 hours (n = 3 at each time point).
The stability of QST in mouse plasma was also tested at 0, 2, 8, 16, or 24 hours (n = 3 at each time point) in the presence of esterase inhibitors: 0.25 mM BNPP, 1mM dithiobis(2-nitrobenzoic acid) (DTNB), or 1.25 mM phenylmethylsulfonyl fluoride (PMSF). Plasma and brain homogenate samples were stored at −80 °C until LC-MS/MS analysis. […]
Supplemental Figure 4. Stability of QST in mouse plasma is improved upon addition of esterase inhibitors. (A) Stability of QST (100 nM) in mouse plasma and mouse brain homogenate when sample preparation is performed at 4 °C. (B) Stability of QST (500 nM) in mouse plasma spiked with 3 different esterase inhibitors: 0.25 mM bis(p-nitrophenyl) phosphate (BNPP), 1.25 mM phenylmethylsulfonyl fluoride (PMSF), and 1 mM dithiobis(2-nitrobenzoic acid) (DTNB) over the course of 24 hours at 37 °C. (C) Stability of QST (10 nM and 100 nM) in neurobasal cell culture medium over the course of 24 hours at 37 °C.

orthotopic GB126 tumors = assay: Bioluminescence imaging of tumor burden, orthotopic GB126 PDX; format: in vivo, athymic nude mice; conditions: individual mice
Experimental: We additionally questioned whether QST, either alone or in combination with IR, could extend the survival of tumor-bearing mice. In this study, mice received the same treatments described above, but after completion of the 1-week IR regimen, mice continued to receive QST at 10 mg/kg or vehicle solution on MWF until study completion, as determined by large tumor burden and onset of neurological symptoms (Figure 8A). […] Although QST monotherapy slowed tumor growth, median survival for the QST-treated mice was only 4 days longer than for the vehicle-treated mice (P < 0.01), and IR alone increased median survival by 17 days (P < 0.001; Figure 8D). However, combining QST with IR led to a significant increase in median survival (37 days, P < 0.001) compared with the vehicle (Figure 8D). […]
Rad225XL irradiator (Precision X -Ray). […]
Live Bioluminescence Imaging
Two weeks after implantation, mice were examined for tumor growth by monitoring bioluminescence every 7 days using the IVIS Xenogen Spectrum platform. D -Luciferin Potassium Salt (Gold Biotechnology) was dissolved in PBS at a final concentration of 15 mg/mL. All mice were weighed each week and administered D -Luciferin via an intraperitoneal injection (10 μl/g). Fifteen minutes after injection, the mice were sedated using gaseous isoflurane (Piramal) and placed inside an IVIS Spectrum in vivo imaging system (Perkin Elmer) […]
for bioluminescence imaging. The total flux (photons/second) within the region of interest was calculated using the Living Image software 4.5 (Perkin Elmer).
Preparation of QST for In Vivo Use
For in vivo preparation, QST was dissolved in 50% polyethylene glycol (PEG) 300, 50% sterile water solution for 10 mg/kg dosing. The suspension was then sonicated for 10 minutes to allow the drug to completely dissolve. Finally, the pH of both the drug and the vehicle solutions was adjusted to 7.4 before intraperitoneal dosing. […]
In Vivo Irradiation Studies
Intracranial or flank tumor–bearing nude mice were sedated with gaseous isoflurane before
IR. On the first week of treatment, 2 hours after treatment with QST or vehicle, the mice were […]

Cn1cc(CNCC2CCN(c3ncc(C(=O)NO)cn3)CC2)c2ccccc21 [QST, quisinostat]
%stability ([1]; mouse plasma with 0.25mM BNPP, time 0): 107.9% and 91.2% and 100.9%
%stability ([1]; mouse plasma with 0.25mM BNPP, time 0, mean): 100.0%
%stability ([1]; mouse plasma with 0.25mM BNPP, time 2): 64.6% and 83.0% and 82.7%
%stability ([1]; mouse plasma with 0.25mM BNPP, time 2, mean): 76.8%
%stability ([1]; mouse plasma with 0.25mM BNPP, time 8): 61.2% and 65.8% and 67.9%
%stability ([1]; mouse plasma with 0.25mM BNPP, time 8, mean): 65.0%
%stability ([1]; mouse plasma with 0.25mM BNPP, time 16): 53.0% and 52.9% and 53.7%
%stability ([1]; mouse plasma with 0.25mM BNPP, time 16, mean): 53.2%
%stability ([1]; mouse plasma with 0.25mM BNPP, time 24): 47.9% and 55.7% and 51.9%
%stability ([1]; mouse plasma with 0.25mM BNPP, time 24, mean): 51.8%
%stability ([1]; mouse plasma with 1mM DTNB, time 0): 107.9% and 91.2% and 100.9%
%stability ([1]; mouse plasma with 1mM DTNB, time 0, mean): 100.0%
%stability ([1]; mouse plasma with 1mM DTNB, time 2): 20.7% and 19.1% and 20.9%
%stability ([1]; mouse plasma with 1mM DTNB, time 2, mean): 20.2%
%stability ([1]; mouse plasma with 1mM DTNB, time 8): 0.277% and 0.7%
%stability ([1]; mouse plasma with 1mM DTNB, time 8, mean): 0.5%
%stability ([1]; mouse plasma with 1mM DTNB, time 16): 0.6% and 0.5%
%stability ([1]; mouse plasma with 1mM DTNB, time 16, mean): 0.545%
%stability ([1]; mouse plasma with 1mM DTNB, time 24): 0.7% and 0.6% and 0.25%
%stability ([1]; mouse plasma with 1mM DTNB, time 24, mean): 0.5%
%stability ([1]; mouse plasma with 1.25mM PMFS, time 0): 107.9% and 91.2% and 100.9%
%stability ([1]; mouse plasma with 1.25mM PMFS, time 0, mean): 100.0%
%stability ([1]; mouse plasma with 1.25mM PMFS, time 2): 61.9% and 64.2% and 59.2%
%stability ([1]; mouse plasma with 1.25mM PMFS, time 2, mean): 61.8%
%stability ([1]; mouse plasma with 1.25mM PMFS, time 8): 26.3% and 24.6% and 23.5%
%stability ([1]; mouse plasma with 1.25mM PMFS, time 8, mean): 24.8%
%stability ([1]; mouse plasma with 1.25mM PMFS, time 16): 6.1% and 5.9% and 7.1%
%stability ([1]; mouse plasma with 1.25mM PMFS, time 16, mean): 6.4%
%stability ([1]; mouse plasma with 1.25mM PMFS, time 24): 4.3% and 3.8%
%stability ([1]; mouse plasma with 1.25mM PMFS, time 24, mean): 4.0%
IVIS imaging, bioluminescence (orthotopic GB126 tumors; Qstat 10 mg/kg + IR 6 Gy, day 0 post Tx start (baseline)): 75600000 photons/seconds and 79700000 photons/seconds and 125000000 photons/seconds and 47900000 photons/seconds and 137000000 photons/seconds and 47600000 photons/seconds and 28100000 photons/seconds and 33000000 photons/seconds and 18800000 photons/seconds and 23200000 photons/seconds
IVIS imaging, bioluminescence (orthotopic GB126 tumors; Qstat 10 mg/kg + IR 6 Gy, day 8 post Tx start): 37000000 photons/seconds and 56500000 photons/seconds and 14000000 photons/seconds and 16000000 photons/seconds and 118000000 photons/seconds and 67200000 photons/seconds and 5460000 photons/seconds and 2880000 photons/seconds and 542000 photons/seconds and 178000000 photons/seconds
IVIS imaging, bioluminescence (orthotopic GB126 tumors; Qstat 10 mg/kg + IR 6 Gy, day 29 post Tx start): 111000000 photons/seconds and 75900000 photons/seconds and 60800000 photons/seconds and 55400000 photons/seconds and 150000000 photons/seconds and 22000000 photons/seconds and 8210000 photons/seconds and 10600000 photons/seconds and 10200000 photons/seconds and 15700000 photons/seconds
IVIS imaging, bioluminescence (orthotopic GB126 tumors; Qstat 10 mg/kg + IR 6 Gy, day 36 post Tx start): 9000000 photons/seconds and 4380000 photons/seconds and 371000000 photons/seconds and 40800000 photons/seconds and 426000000 photons/seconds and 6690000 photons/seconds and 51000000 photons/seconds and 114000000 photons/seconds and 111000000 photons/seconds
IVIS imaging, bioluminescence (orthotopic GB126 tumors; Qstat 10 mg/kg + IR 6 Gy, day 43 post Tx start): 943000000 photons/seconds and 1020000000 photons/seconds and 359000000 photons/seconds and 413000000 photons/seconds and 832000000 photons/seconds and 252000000 photons/seconds (2×) and 865000000 photons/seconds and 139000000 photons/seconds and 55200000 photons/seconds
IVIS imaging, bioluminescence (orthotopic GB126 tumors; Qstat 10 mg/kg + IR 6 Gy, day 50 post Tx start): 1010000000 photons/seconds and 2140000000 photons/seconds and 260000000 photons/seconds and 1180000000 photons/seconds and 4090000000 photons/seconds and 2810000000 photons/seconds and 808000000 photons/seconds and 15100000 photons/seconds and 286000000 photons/seconds
IVIS imaging, bioluminescence (orthotopic GB126 tumors; Qstat 10 mg/kg + IR 6 Gy, day 57 post Tx start): 6040000000 photons/seconds and 4070000000 photons/seconds and 1070000000 photons/seconds and 2530000000 photons/seconds and 1020000000 photons/seconds and 1870000000 photons/seconds and 1150000000 photons/seconds
IVIS imaging, bioluminescence (orthotopic GB126 tumors; Qstat 10 mg/kg alone, day 0 post Tx start (baseline), PDX model): 86400000 photons/seconds and 33100000 photons/seconds and 140000000 photons/seconds and 26400000 photons/seconds and 105000000 photons/seconds and 45000000 photons/seconds and 52600000 photons/seconds and 53600000 photons/seconds and 60100000 photons/seconds and 13600000 photons/seconds
IVIS imaging, bioluminescence (orthotopic GB126 tumors; Qstat 10 mg/kg alone, day 8 post Tx start): 42100000 photons/seconds and 58500000 photons/seconds and 585000000 photons/seconds and 200000000 photons/seconds and 458000000 photons/seconds and 884000000 photons/seconds and 49000000 photons/seconds and 19500000 photons/seconds and 581000000 photons/seconds and 107000000 photons/seconds
IVIS imaging, bioluminescence (orthotopic GB126 tumors; Qstat 10 mg/kg alone, day 15 post Tx start): 5290000 photons/seconds and 888000000 photons/seconds and 5530000 photons/seconds and 4270000 photons/seconds and 7590000 photons/seconds and 19400000 photons/seconds
IVIS imaging, bioluminescence (orthotopic GB126 tumors; Qstat 10 mg/kg alone, day 29 post Tx start): 1550000000 photons/seconds and 10600000000 photons/seconds and 15100000000 photons/seconds and 7070000000 photons/seconds and 3880000000 photons/seconds and 387000000 photons/seconds and 12600000000 photons/seconds and 413000000 photons/seconds and 4430000000 photons/seconds
